Experimental findings from patent US10815238B2, “Antimicrobial compounds and methods of making and using the same” (BIOVERSYS AG, priority 2013, dated 2020) are described below.

Bounds are passed on as bounds.

This experiment relates to Eschericia coli (E. coli) strain ATCC25922. Briefly: Standard microdilution assay, MIC against E. coli ATCC25922. The format is cell-based. To be noted: Escherichia coli; E. coli strain ATCC25922, standard microdilution assay; cutoff 16 micrograms/mL; read-out: MIC E. Coli. The method, boiled down:
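MIC determined by broth microdilution following CLSI protocols, with reference strains run in parallel for quality control. Activity scored +/− at a cutoff of 16 micrograms/mL.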
(In general: Broth dilution looks for growth in wells or tubes with falling amounts of substance.)
The MIC is the least concentration at which growth counts as inhibited. In the case of `C[C@H](N)CCCc1cc(Cl)c(F)c(-c2cc3cn(-c4ccc([C@H](C)NCC[C@@H](C)NC(=N)N)cc4)c(=O)nc3[nH]2)c1` [Compound 194], the minimal inhibitory concentration (MIC) was under 16 µg/mL.

`CNCCNCc1ccc(-n2cc(-c3cc4cn(-c5ccc(CNCCNC)cc5)c(=O)nc4[nH]3)c(N)nc2=O)cc1` [Compound 125]: the MIC is over 16 µg/mL.

Regarding `C[C@H](NCCCNC(=N)N)c1ccc(-n2cc3cc(-c4cc(CCC[C@@H](N)CO)cc(C(F)(F)F)c4)[nH]c3nc2=O)cc1` [Compound 242], the MIC is under 16 µg/mL.

As for `C[C@H](N)CCCc1cc(Cl)c(F)c(-c2cc3cn(-c4ccc(CNCCC(C)(C)N)cc4)c(=O)nc3[nH]2)c1` [Compound 175], the minimum inhibitory concentration (MIC) is under 16 µg/mL.

For `C[C@H](N)CCCc1cc(Cl)c(F)c(-c2cc3cn(-c4ccc([C@H](C)NCCCN(C)C(=N)N)cc4)c(=O)nc3[nH]2)c1` [Compound 205], the MIC is under 16 µg/mL.

In the case of `C=C[C@@H](N)CC[C@@H](O)c1cc(SC(F)(F)F)cc(-c2cc3cn(-c4ccc([C@H](C)NCCCNC(=N)N)cc4)c(=O)nc3[nH]2)c1` [Compound 79], the minimal inhibitory concentration (MIC) is under 16 µg/mL.

Turning to `C[C@H](N)CCCc1cc(SC(F)(F)F)cc(-c2cc3cn(-c4ccc([C@H](CCCO)NCCCNC(=N)N)cc4)c(=O)nc3[nH]2)c1` [Compound 100], the MIC is under 16 µg/mL.

With `C[C@H](N)CCCc1cc(Cl)c(F)c(-c2cc3cn(-c4ccc([C@H](C)NCC[C@@H](CCCO)NC(=N)N)cc4)c(=O)nc3[nH]2)c1` [Compound 239], the MIC is under 16 µg/mL.

`C[C@H](N)CCCc1cc(Cl)c(F)c(-c2cc3cn(-c4ccc([C@H](CCCO)NCCCNC(=N)N)cc4)c(=O)nc3[nH]2)c1` [Compound 99]: the MIC is under 16 µg/mL.

As to `C[C@H](N)CCCc1cc(-c2cc3cn(-c4ccc([C@@H](NCCCNC(=N)N)c5cccnc5)cc4)c(=O)nc3[nH]2)cc(C(F)(F)F)c1` [Compound 84], the MIC was under 16 µg/mL.

For the compound `C[C@H](N)CCCc1cc(Cl)c(F)c(-c2cc3cn(-c4ccc(CNCC#N)cc4)c(=O)nc3[nH]2)c1` [Compound 165], the MIC is over 16 µg/mL.

For the compound `C[C@H](N)CCCc1cc(Cl)c(F)c(-c2cc3cn(-c4ccc(CNCC[C@H](CO)NC(=N)N)cc4)c(=O)nc3[nH]2)c1` [Compound 181], the MIC was under 16 µg/mL.

With `C[C@H](N)CCCc1cc(Cl)c(F)c(-c2cc3cn(-c4ccc(CNCC[C@@H](NC(=N)N)C5CC5)cc4)c(=O)nc3[nH]2)c1` [Compound 174], the MIC is under 16 µg/mL.

Turning to `N=C(N)NCCCNCc1ccc(-n2cc3cc(-c4ccc(C(=O)NCc5csc(N6CCOCC6)n5)cc4)[nH]c3nc2=O)cc1` [Compound 49], the MIC is under 16 µg/mL.

Turning to `C[C@H](N)CCCc1cc(OC(F)(F)F)c(F)c(-c2cc3cn(-c4ccc([C@H](C)NCC[C@@H](CCc5ccccc5)NC(=N)N)cc4)c(=O)nc3[nH]2)c1` [Compound 259], the MIC is under 16 µg/mL.

As to `C[C@H](N)CCCc1cc(Cl)c(F)c(-c2cc3cn(-c4ccc(CNCCC5(N)CNC5)cc4)c(=O)nc3[nH]2)c1` [Compound 189], the minimal inhibitory concentration (MIC) was under 16 µg/mL.

Regarding `C[C@H](N)CCCc1cc(-c2cc3cn(-c4ccc([C@H](CO)NCCCNC(=N)N)cc4)c(=O)nc3[nH]2)cc(C(F)(F)F)c1` [Compound 108], the MIC is under 16 µg/mL.

With `C=C[C@@H](N)CCNCc1ccc(-n2cc3cc(-c4cc(CCC[C@H](C)N)cc(Cl)c4F)[nH]c3nc2=O)cc1` [Compound 173], the minimum inhibitory concentration (MIC) is under 16 µg/mL.

Turning to `COc1ccc([C@@H](c2ccc(SC)cc2)c2ccc(-n3cc4cc(-c5cc(CCC[C@H](C)N)cc(SC(F)(F)F)c5)[nH]c4nc3=O)cc2)cc1` [Compound 9], the minimal inhibitory concentration (MIC) was over 16 µg/mL.

For the compound `C[C@H](N)CCCc1cc(SC(F)(F)F)cc(-c2cc3cn(-c4ccc(CNCc5cnc(N)s5)cc4)c(=O)nc3[nH]2)c1` [Compound 159], the minimum inhibitory concentration (MIC) is over 16 µg/mL.

With `O=C(O)CCNCc1ccc(-n2cc3cc[nH]c3nc2=O)cc1` [Compound 138], the MIC was over 16 µg/mL.

Regarding `C[C@H](N)CC[C@H](O)c1cc(SC(F)(F)F)cc(-c2cc3cn(-c4ccc([C@H](C)NCCCNC(=N)N)cc4)c(=O)nc3[nH]2)c1` [Compound 68], the MIC is under 16 µg/mL.

As for `C[C@H](N)CCCc1cc(Cl)c(F)c(-c2cc3cn(-c4ccc([C@@H](NCCCNC(=N)N)C(N)=O)cc4)c(=O)nc3[nH]2)c1` [Compound 32], the MIC was under 16 µg/mL.

For the compound `C[C@H](N)CCCc1cc(Cl)c(F)c(-c2cc3cn(-c4ccc(CN)cc4)c(=O)nc3[nH]2)c1` [Compound 136], the minimal inhibitory concentration (MIC) is over 16 µg/mL.

With `C[C@H](N)CCCc1cc(Cl)c(F)c(-c2cc3cn(-c4ccc(CNCCC(N)C(F)(F)F)cc4)c(=O)nc3[nH]2)c1` (stereo partly drawn) [Compound 172], the MIC is over 16 µg/mL.

`C=CC[C@H](CCN[C@@H](C)c1ccc(-n2cc3cc(-c4cc(CCC[C@H](C)N)cc(Cl)c4F)[nH]c3nc2=O)cc1)NC(=N)N` [Compound 251]: the MIC was under 16 µg/mL.

`C[C@H](N)CC[C@@H](O)c1cc(OC(F)(F)F)cc(-c2cc3cn(-c4ccc([C@H](C)NCCCNC(=N)N)cc4)c(=O)nc3[nH]2)c1` [Compound 34]: the minimal inhibitory concentration (MIC) is under 16 µg/mL.

As for `C[C@H](N)CCCc1cc(-c2cc3cn(-c4ccc([C@@H](NCCCNC(=N)N)c5ccc(S(C)(=O)=O)cc5)cc4)c(=O)nc3[nH]2)cc(C(F)(F)F)c1` [Compound 60], the MIC was over 16 µg/mL.

On to `CC[C@H](N)CCNCc1ccc(-n2cc3cc(-c4cc(CCC[C@H](C)N)cc(Cl)c4F)[nH]c3nc2=O)cc1` [Compound 152], for which the minimal inhibitory concentration (MIC) is under 16 µg/mL.

For `C[C@H](N)CCCc1cc(Cl)c(F)c(-c2cc3cn(-c4ccc([C@@H](N)CCCCNC(=N)N)cc4)c(=O)nc3[nH]2)c1` [Compound 118], the MIC is under 16 µg/mL.

`C=CCNCCCN[C@@H](C)c1ccc(-n2cc3cc(-c4cc(CCC[C@H](C)N)cc(C(F)(F)F)c4)[nH]c3nc2=O)cc1` [Compound 216]: the minimum inhibitory concentration (MIC) was under 16 µg/mL.

With `C[C@H](N)CCCc1cc(Cl)c(F)c(-c2cc3cn(-c4ccc([C@H](C)NCC[C@H](Cc5c[nH]nn5)NC(=N)N)cc4)c(=O)nc3[nH]2)c1` [Compound 267], the minimal inhibitory concentration (MIC) is under 16 µg/mL.

As to `C[C@H](NCCCNC(=N)N)c1ccc(-n2cc3cc(-c4cc(OC(F)(F)F)cc([C@H]5C[C@H](N)CCO5)c4)[nH]c3nc2=O)cc1` [Compound 36], the MIC is under 16 µg/mL.

Take `C[C@H](N)CCCc1cc(-c2cc3cn(-c4ccc([C@H](Cn5ccnn5)NCCCNC(=N)N)cc4)c(=O)nc3[nH]2)cc(C(F)(F)F)c1` [Compound 94]: the MIC was under 16 µg/mL.

`C[C@H](N)CCCc1cc(Cl)c(F)c(-c2cc3cn(-c4ccc([C@H](C)NCCC(CC(O)CO)NC(=N)N)cc4)c(=O)nc3[nH]2)c1` (stereo partly drawn) [Compound 270]: the minimum inhibitory concentration (MIC) is under 16 µg/mL.

For `C[C@H](N)CCCc1cc(Cl)c(F)c(-c2cc3cn(-c4ccc([C@H](CF)NCCCNC(=N)N)cc4)c(=O)nc3[nH]2)c1` [Compound 150], the MIC was under 16 µg/mL.

As to `N=C(N)N1CCN(Cc2ccc(-n3cc4cc(-c5ccc(C(NC6CN(C(=N)N)C6)C(F)(F)F)cc5)[nH]c4nc3=O)cc2)CC1` (stereo not drawn) [Compound 54], the MIC was under 16 µg/mL.

With `C[C@H](N)CCCc1cc(Cl)c(F)c(C#Cc2cn(-c3ccc([C@H](C)NCCCNC(=N)N)cc3)c(=O)nc2N)c1` [Compound 241], the MIC was under 16 µg/mL.

Turning to `C[C@H](N)CCCc1cc(OC(F)(F)F)c(F)c(-c2cc3cn(-c4ccc([C@H](N)C(=O)NCCNC(=N)N)cc4)c(=O)nc3[nH]2)c1` [Compound 255], the MIC is under 16 µg/mL.

Regarding `C[C@H](N)CCCc1cc(Cl)c(F)c(-c2cc3cn(-c4ccc([C@H](Cn5ccnn5)NCCCNC(=N)N)cc4)c(=O)nc3[nH]2)c1` [Compound 87], the MIC is under 16 µg/mL.

For the compound `C[C@H](N)CCCc1cc(Cl)c(F)c(-c2cc3cn(-c4ccc([C@H](N)C(=O)NCCN)cc4)c(=O)nc3[nH]2)c1` [Compound 254], the MIC was under 16 µg/mL.

With `C[C@H](N)CCCc1cc(Cl)c(F)c(-c2cc3cn(-c4ccc([C@H](CCNc5nccs5)NCCCNC(=N)N)cc4)c(=O)nc3[nH]2)c1` [Compound 85], the MIC is under 16 µg/mL.

Take `C[C@H](N)CCCc1cc(Cl)c(F)c(-c2cc3cn(-c4ccc([C@@H](C)NCCCN)cc4)c(=O)nc3[nH]2)c1` [Compound 318]: the MIC is under 16 µg/mL.

On to `C[C@H](N)CCCc1cc(-c2cc3cn(-c4ccc([C@H](C)NCCCNC(=N)N)cc4)c(=O)nc3[nH]2)cc([S+]([O-])C(F)(F)F)c1` (stereo partly drawn) [Compound 164], for which the minimum inhibitory concentration (MIC) was under 16 µg/mL.

In the case of `C[C@H](NCCCNC(=N)N)c1ccc(-n2cc3cc(-c4cc(COC[C@@H](N)CO)cc(SC(F)(F)F)c4)[nH]c3nc2=O)cc1` [Compound 80], the minimum inhibitory concentration (MIC) is under 16 µg/mL.

Take `C[C@H](N)CCCc1cc(Cl)c(F)c(-c2cc3cn(-c4ccc([C@@H](C)NCCCNC(=N)N)cc4)c(=O)nc3[nH]2)c1` [Compound 317]: the MIC was under 16 µg/mL.

Turning to `C[C@H](NCCCNC(=N)N)c1ccc(-n2cc3cc(-c4cc(CCC[C@@H](N)COC(=O)CCC(=O)O)cc(Cl)c4F)[nH]c3nc2=O)cc1` [Compound 308], the minimum inhibitory concentration (MIC) is under 16 µg/mL.

For `C[C@H](N)CCCc1cc(-c2cc3cn(-c4ccc([C@H](CCCO)NCCCNC(=N)N)cc4)c(=O)nc3[nH]2)cc(C(F)(F)F)c1` [Compound 101], the MIC was under 16 µg/mL.

For the compound `COc1ccc(CNCc2ccc(-n3cc4cc(-c5cc(CCC[C@H](C)N)cc(Cl)c5F)[nH]c4nc3=O)cc2)cn1` [Compound 145], the MIC was over 16 µg/mL.

As to `C[C@H](N)CCCc1cc(Cl)c(F)c(-c2cc3cn(-c4ccc([C@H](C)NCC[C@@H](CC#N)NC(=N)N)cc4)c(=O)nc3[nH]2)c1` [Compound 297], the MIC was under 16 µg/mL.

On to `CN[C@H](CCNCc1ccc(-n2cc3cc(-c4cc(CCC[C@H](C)N)cc(Cl)c4F)[nH]c3nc2=O)cc1)COC` [Compound 179], for which the minimal inhibitory concentration (MIC) was under 16 µg/mL.

For `C[C@H](N)CCCc1cc(SC(F)(F)F)cc(-c2cc3cn(-c4ccc([C@@H](CF)NCCCNC(=N)N)cc4)c(=O)nc3[nH]2)c1` [Compound 96], the MIC was under 16 µg/mL.

For `C[C@H](NCCCNC(=N)N)c1ccc(-n2cc3cc(-c4cc(CCC[C@@H](N)CF)cc(Cl)c4F)[nH]c3nc2=O)cc1` [Compound 135], the minimum inhibitory concentration (MIC) was under 16 µg/mL.

For the compound `C[C@H](N)CCCc1cc(SC(F)(F)F)cc(-c2cc3cn(-c4ccc([C@@H](NCCCNC(=N)N)C(=O)N5CCNCC5)cc4)c(=O)nc3[nH]2)c1` [Compound 14], the MIC is under 16 µg/mL.
